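Compound exposure: 48 hours, 5 concentrations, 96-well plates. Abbreviation: GI50, concentration required for 50% inhibition of growth.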 Calls of active or inactive are those of the source. Cut-off read from the data, not from the text of the source: active = GI50 up to about 1.1 µM and inactive = higher.
Assays:
Assay in all cases: NCI-60 cell line screen, 48 h
[1] = test system: 786-0
[2] = test system: A498
[3] = test system: A549
[4] = test system: ACHN
[5] = test system: BT-549
[6] = test system: CAKI-1
[7] = test system: CCRF-CEM
[8] = test system: COLO 205
[9] = test system: DU-145
[10] = test system: EKVX
[11] = test system: HCC 2998
[12] = test system: HCT-116
[13] = test system: HCT-15
[14] = test system: HOP-62
[15] = test system: HOP-92
[16] = test system: HT-29
[17] = test system: Hs-578T
[18] = test system: IGROV-1
[19] = test system: K562
[20] = test system: KM12
[21] = test system: LOX IMVI
[22] = test system: M14
[23] = test system: MCF7
[24] = test system: MDA-MB-231
[25] = test system: MDA-MB-435
[26] = test system: MDA-N
[27] = test system: MOLT-4
[28] = test system: Malme-3M
[29] = test system: NCI-H226
[30] = test system: NCI-H23
[31] = test system: NCI-H460
[32] = test system: NCI-H522
[33] = test system: NCI/ADR-RES
[34] = test system: OVCAR-3
[35] = test system: OVCAR-4
[36] = test system: OVCAR-5
[37] = test system: OVCAR-8
[38] = test system: PC-3
[39] = test system: RPMI-8226
[40] = test system: RXF 393
[41] = test system: SF-268
[42] = test system: SF-295
[43] = test system: SF-539
[44] = test system: SK-MEL-28
[45] = test system: SK-MEL-2
[46] = test system: SK-MEL-5
[47] = test system: SK-OV-3
[48] = test system: SN12C
[49] = test system: SNB-19
[50] = test system: SNB-75
[51] = test system: SR
[52] = test system: SW-620
[53] = test system: T47D
[54] = test system: TK-10
[55] = test system: U-251
[56] = test system: UACC-257
[57] = test system: UACC-62
[58] = test system: UO-31
[59] = test system: HL-60

Measured: GI50

C[C@H](NC(=O)c1ccc(CNC(=O)/C=C/c2cccc(Oc3ccccc3)c2)cc1)c1ccccc1
> 100 µM: [13]
inactive: [1] 36.5 µM | [2] 73.6 µM | [3] 55.8 µM | [4] 57.9 µM | [5] > 100 µM | [6] 22.6 µM | [7] > 100 µM | [8] > 100 µM | [9] > 100 µM | [10] > 100 µM | [11] > 100 µM | [12] > 100 µM | [14] 36.9 µM | [15] > 100 µM | [16] > 100 µM | [17] 49.9 µM | [18] > 100 µM | [19] > 100 µM | [20] > 100 µM | [21] > 100 µM | [22] > 100 µM | [23] > 100 µM | [24] > 100 µM | [25] > 100 µM | [26] > 100 µM | [27] 93.3 µM | [28] > 100 µM | [29] 32.7 µM | [30] > 100 µM | [31] > 100 µM | [32] > 100 µM | [33] > 100 µM | [34] > 100 µM | [35] 83.2 µM | [36] > 100 µM | [37] > 100 µM | [38] > 100 µM | [39] > 100 µM | [40] 26.7 µM | [41] > 100 µM | [42] 40.8 µM | [43] 27 µM | [44] 80.9 µM | [45] > 100 µM | [46] 58.5 µM | [47] > 100 µM | [48] > 100 µM | [49] 37.8 µM | [50] 15.2 µM | [51] 26.8 µM | [52] > 100 µM | [53] 98.2 µM | [54] 61.4 µM | [55] 49.2 µM | [56] > 100 µM | [57] > 100 µM | [58] 46.1 µM

Cc1ccc2c3c1O[C@H]1c4nc5ccccc5cc4C[C@@]4(O)[C@@H](C2)N(CC2CC2)CC[C@]314
0.873 µM: [13]
inactive: [1] 10.8 µM | [2] 16.5 µM | [3] 6.4 µM | [4] 10.4 µM | [5] 11.2 µM | [6] 13.2 µM | [7] 1.39 µM | [8] 5.2 µM | [9] 14.1 µM | [10] 15.1 µM | [12] 4.54 µM | [59] 9.23 µM | [14] 12.1 µM | [15] 19.9 µM | [16] 3.31 µM | [17] 8.69 µM | [18] 17.5 µM | [19] 3.31 µM | [20] 11.1 µM | [21] 4.47 µM | [22] 12.5 µM | [23] 10.4 µM | [24] 11.2 µM | [25] 11.4 µM | [26] 11.8 µM | [27] 2.5 µM | [28] 14.5 µM | [29] 10.6 µM | [30] 20.6 µM | [31] 20 µM | [32] 13.7 µM | [33] 6.44 µM | [34] 11.6 µM | [35] 13.4 µM | [36] 12.7 µM | [37] 10.7 µM | [38] 3.95 µM | [39] 4.63 µM | [40] 8 µM | [41] 7.03 µM | [42] 7.64 µM | [43] 4.68 µM | [44] 19.6 µM | [45] 18.5 µM | [46] 7.18 µM | [47] 14.1 µM | [48] 28.6 µM | [49] 12.8 µM | [51] 3.86 µM | [52] 4.29 µM | [53] 15.8 µM | [54] 29.6 µM | [55] 5.74 µM | [56] 24.7 µM | [57] 9.82 µM | [58] 10.4 µM
